Test results from PubChem BioAssay (NCI).
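Cells were grown in 96-well plates and exposed to each compound for 48 hours at five concentrations; endpoints were interpolated linearly between bracketing concentrations, or set to the highest concentration if not reached. Here, GI50 denotes the concentration required for 50% inhibition of growth. TGI is the concentration that stops growth completely.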

Experiments:
Experiment in all cases: NCI-60 cell line screen, 48 h
HL-60(TB) leukemia = tested on: HL-60(TB) leukemia
UACC-62 melanoma = tested on: UACC-62 melanoma
HCT-116 colon = tested on: HCT-116 colon
UACC-257 melanoma = tested on: UACC-257 melanoma
NCI-H460 lung = tested on: NCI-H460 lung
HOP-92 NSCLC = tested on: HOP-92 NSCLC
SNB-19 CNS = tested on: SNB-19 CNS
ACHN renal = tested on: ACHN renal
OVCAR-5 ovarian = tested on: OVCAR-5 ovarian
SR leukemia = tested on: SR leukemia

Row | Compound | TGI (HL-60(TB) leukemia) [µM] | TGI (UACC-62 melanoma) [µM] | TGI (HCT-116 colon) [µM] | TGI (UACC-257 melanoma) [µM] | TGI (NCI-H460 lung) [µM] | TGI (HOP-92 NSCLC) [µM] | TGI (SNB-19 CNS) [µM] | TGI (ACHN renal) [µM] | TGI (OVCAR-5 ovarian) [µM] | TGI (SR leukemia) [µM] | GI50 (HL-60(TB) leukemia) [µM] | GI50 (UACC-62 melanoma) [µM] | GI50 (HCT-116 colon) [µM] | GI50 (UACC-257 melanoma) [µM] | GI50 (NCI-H460 lung) [µM] | GI50 (HOP-92 NSCLC) [µM] | GI50 (SNB-19 CNS) [µM] | GI50 (ACHN renal) [µM] | GI50 (OVCAR-5 ovarian) [µM] | GI50 (SR leukemia) [µM]
1 | N=C(N)SCc1ccc(N=C=S)cc1 | 35.9 | 23.7 | 27.2 | 25.8 | 30.4 | 24.2 | 26.7 | 26.1 | 27.6 | > 100 | – | – | – | – | – | – | – | – | – | –
2 | NC(N)=NS(=O)(=O)c1ccc(NC(=O)c2ccc3nc4ccccc4c(N)c3c2)cc1 | > 100 | > 100 | > 100 | > 100 | > 100 | > 100 | > 100 | > 100 | > 100 | > 100 | – | – | – | – | – | – | – | – | – | –
3 | CCOC(=O)c1cn2c(ccc3sc4ccccc4c(=O)c32)n1 | > 100 | – | > 100 | > 100 | > 100 | > 100 | > 100 | > 100 | > 100 | > 100 | – | – | – | – | – | – | – | – | – | –
4 | Cc1ccc(NC(=O)/C(=N\NC(N)=O)c2c(O)c3ccccc3[nH]c2=O)cc1 | > 100 | > 100 | > 100 | > 100 | > 100 | > 100 | > 100 | > 100 | > 100 | > 100 | – | – | – | – | – | – | – | – | – | –
5 | O=C1CSC(C(N=Nc2ccc(Cl)cc2)c2nc3ccccc3[nH]2)=N1 (centres undefined) | > 100 | > 100 | > 100 | > 100 | > 100 | > 100 | > 100 | > 100 | > 100 | > 100 | – | – | – | – | – | – | – | – | – | –
6 | Nc1c2c(nc3ccccc13)CCCc1ccccc1-2 | 21.4 | 20.8 | 19.1 | 27.1 | 14.5 | 22.6 | 52.9 | 23 | 34.6 | > 100 | – | – | – | – | – | – | – | – | – | –
7 | C[N+](C)(C)C(C1=CCCC1=O)c1ccccc1 (centres undefined) | 66.5 | 38.8 | 32.1 | 64.4 | 89.8 | 85.3 | > 100 | 64.3 | > 100 | 44.5 | – | – | – | – | – | – | – | – | – | –
8 | C=CCn1c(-c2ccc(Cl)cc2Cl)csc1=Nc1c(C)n(C)n(-c2ccccc2)c1=O | 25.8 | 22.5 | 20.4 | 19.2 | 27.1 | 41.1 | 24.7 | 27.7 | 31.1 | 21.9 | – | – | – | – | – | – | – | – | – | –
9 | CC(C)(SCc1ccccc1)C(N)C(=O)O (centres undefined) | > 100 | > 100 | > 100 | > 100 | > 100 | > 100 | > 100 | > 100 | > 100 | > 100 | – | – | – | – | – | – | – | – | – | –
10 | NC(=O)SCC(=O)Nc1ccc2ncccc2c1 | > 100 | > 100 | > 100 | > 100 | > 100 | > 100 | > 100 | > 100 | > 100 | > 100 | – | – | – | – | – | – | – | – | – | –
11 | CCCCCCCCCCCCCCCCOc1ccc(/C=C/C2=[N+](CCCl)CCO2)cc1 | 98.6 | > 100 | > 100 | > 100 | > 100 | > 100 | > 100 | > 100 | > 100 | 92.5 | – | – | – | – | – | – | – | – | – | –
12 | CS/C=C\C(=O)O[C@H]1C[C@@H]2[C@@H](O)c3occ(C)c3C[C@]2(C)[C@@H](C)C1 | 43.8 | 37.9 | 31.4 | 30.5 | 60.7 | 65.6 | > 100 | 63.2 | > 100 | 99.4 | – | – | – | – | – | – | – | – | – | –
13 | C[C@]12CCc3sc(-c4cccc(F)c4)nc3C1=CC[C@@H]1[C@@H]2CC[C@]2(C)C(=O)CC[C@@H]12 | 5.35 | 5.7 | 3.56 | > 100 | 8.27 | 5.63 | > 100 | 3.01 | 18.5 | 10.5 | 2 | 1.9 | 1.73 | 6.12 | 2.78 | 2.44 | 4.79 | 1.64 | 2.68 | 2.62
14 | CC(=O)OC1OC(c2ccoc2)C[C@@]12C1CCC3O[C@]3(C)[C@]1(C)C[C@H](OC(C)=O)[C@H]2C (some centres undefined) | > 75 | > 75 | > 75 | > 75 | > 75 | > 75 | > 75 | > 75 | > 75 | > 75 | – | – | – | – | – | – | – | – | – | –
15 | Cc1cc(=O)c2ccccc2n1CCCCCCCCCCn1c(C)cc(=O)c2ccccc21 | 15.1 | 34.9 | 27.8 | 25.2 | 87.4 | 38.5 | > 100 | > 100 | > 100 | 34 | – | – | – | – | – | – | – | – | – | –
16 | Cc1nc2ccccc2c(=O)n1/N=C/c1ccc(N(C)C)cc1 | > 100 | > 100 | > 100 | > 100 | > 100 | > 100 | > 100 | > 100 | > 100 | > 100 | – | – | – | – | – | – | – | – | – | –
17 | CCN(CC)CC(=O)Nc1ccc2c(c1)C(=O)c1ccc(NC(=O)CN(CC)CC)cc1C2=O | 44.5 | > 100 | 30.5 | 97.4 | 31.5 | > 100 | 81.3 | 73.3 | > 100 | 41.7 | – | – | – | – | – | – | – | – | – | –
